The values that follow come from patent publication US20260042764A1, “COMPOSITIONS AND METHODS FOR INHIBITION OF KRAS” (TheRas, Inc., priority 2022, published 2026).

Test [1] deals with T1, Avi-KRAS G12D (1-169) GppNHp/RAF1 RBD-3xFLAG (52-151) (Homo sapiens, UniProt P01116, G12D).
T1 construct: Avi-KRAS G12D (1-169)
The test is described as follows: Raf1-KRAS G12D-GppNHP disruption HTRF assay (Biological Example 1). It is filed as binding. The settings on record: KRAS G12D, GppNHp-loaded; class symbols. In short, it runs like this: (§1)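 Percent activity versus DMSO (100%) was derived from HTRF signal after KRAS–RAF1 RBD protein mix was incubated 1 h at room temperature with shaking and detection reagents were added for a further 1 h.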
In general terms: TR-FRET usually uses a lanthanide donor and a delayed reading to cut background.

The target of test [2] is T2, Avi-KRAS G12R (1-169) GppNHp/RAF1 RBD-3xFLAG (52-151) (Homo sapiens, UniProt P01116, G12R).
T2 construct: Avi-KRAS G12R (1-169)
T2 sequence (P01116 1-169 isoform P01116-2 G12R): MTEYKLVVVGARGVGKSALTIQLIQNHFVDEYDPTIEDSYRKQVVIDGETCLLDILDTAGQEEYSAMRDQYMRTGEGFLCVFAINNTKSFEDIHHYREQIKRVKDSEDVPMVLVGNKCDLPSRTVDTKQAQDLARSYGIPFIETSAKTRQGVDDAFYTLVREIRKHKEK
The test is described as follows: Raf1-KRAS G12R-GppNHP disruption HTRF assay (Biological Example 1). The format is binding. The settings on record: KRAS G12R, GppNHp-loaded; class symbols. In short, it runs like this: as §1

Test [3] deals with T3, Avi-KRAS G12V (1-169) GppNHp/RAF1 RBD-3xFLAG (52-151) (Homo sapiens, UniProt P01116, G12V).
T3 construct: Avi-KRAS G12V (1-169)
T3 sequence (P01116 1-169 isoform P01116-2 G12V): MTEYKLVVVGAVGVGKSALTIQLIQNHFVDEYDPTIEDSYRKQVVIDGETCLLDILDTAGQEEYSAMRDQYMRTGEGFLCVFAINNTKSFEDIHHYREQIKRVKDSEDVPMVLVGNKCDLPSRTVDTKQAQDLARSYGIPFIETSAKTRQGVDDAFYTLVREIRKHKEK
The test is described as follows: Raf1-KRAS G12V-GppNHP disruption HTRF assay (Biological Example 1). It is filed as binding. The settings on record: KRAS G12V, GppNHp-loaded; class symbols. In short, it runs like this: as §1

Test [4] deals with T4, Avi-KRAS WT (1-169) GppNHp/RAF1 RBD-3xFLAG (52-151) (Homo sapiens, UniProt P01116).
T4 construct: Avi-KRAS WT (1-169)
T4 sequence (P01116 1-169 isoform P01116-2): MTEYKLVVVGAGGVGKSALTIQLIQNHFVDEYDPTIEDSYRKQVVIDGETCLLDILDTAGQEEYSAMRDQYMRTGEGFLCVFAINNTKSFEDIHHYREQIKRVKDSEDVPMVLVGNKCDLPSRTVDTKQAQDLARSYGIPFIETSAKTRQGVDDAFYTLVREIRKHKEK
The test is described as follows: Raf1-KRAS WT-GppNHP disruption HTRF assay (Biological Example 1). The format is binding. The settings on record: KRAS WT, GppNHp-loaded; class symbols. The method in brief: as §1

The subject of the next test is GP2d cells (KRAS G12D). The test is described as follows: Cell-based pERK HTRF assay in GP2d cell (Biological Example 2). The settings on record: GP2d, GP2d (KRAS G12D) cells, pERK HTRF; class symbols. The method in brief: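 Phospho-ERK in lysed cells was detected by HTRF using Eu cryptate and d2 antibodies, read between 4 and 24 h at room temperature. Prior to lysis, KRAS G12D GP2d cells, seeded the day before in DMEM with 10% FBS, were exposed to compounds for 60 min. Compounds were tested as 9-point half-log curves from 1 μM or 100 nM top, with 0.25% DMSO.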

In a further test the test system is SW620 cells (KRAS G12V). In words: Cell-based pERK HTRF assay in SW620 cell (Biological Example 4). The settings on record: Homo sapiens, SW-620, SW620 (KRAS G12V) cells, pERK HTRF; class symbols. The method in brief: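 Read-out: HTRF pERK signal (excitation 320 nm, emission 615 nm) from lysates of SW620 cells after 4 h compound exposure. Dose range was 9 points, half-log steps from 1 μM, in 0.25% DMSO; antibody incubation ran 4–24 h at room temperature.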

pIC50: −log10 of the molar value. A value given as a limit tells only on which side of the number the result lay.

T1 sequence (P01116 1-169 isoform P01116-2 G12D): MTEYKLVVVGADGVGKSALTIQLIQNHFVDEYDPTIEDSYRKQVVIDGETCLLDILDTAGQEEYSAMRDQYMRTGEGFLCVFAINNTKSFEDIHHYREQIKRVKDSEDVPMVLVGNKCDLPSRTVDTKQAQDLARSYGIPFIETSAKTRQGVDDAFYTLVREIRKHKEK

The pIC50 is the IC50 on a negative log10 scale, so that one unit is a factor of ten. A low value points to a large IC50. As for `CCN(c1nc(OC[C@@]23CCCN2C[C@H](F)C3)nc2c(F)c(-c3ccc(F)c4sc(N)c(C#N)c34)c(C(F)(F)F)cc12)[C@H]1CCN(C(=O)C2CCOCC2)C1` (atropisomer, axis not shown) [Compound 578], the pIC50 (in test [1]; in test [2]; in test [3]; in test [4]; in the test on GP2d cells (KRAS G12D); in the test on SW620 cells (KRAS G12V)) was over 7.00 throughout.

As to `CCN(c1nc(OC[C@@]23CCCN2C[C@H](F)C3)nc2c(F)c(-c3ccc(F)c4sc(N)c(C#N)c34)c(C(F)(F)F)cc12)[C@H]1CCN(C(=O)C2COC2)C1` (atropisomer, axis not shown) [Compound 580], the pIC50 (in test [1]; in test [2]; in test [3]; in test [4]; with GP2d cells (KRAS G12D); in the test on SW620 cells (KRAS G12V)) was over 7.00 in each case.

Regarding `CCN(C)C(=O)N1CC[C@H](N(CC)c2nc(OC[C@@]34CCCN3C[C@H](F)C4)nc3c(F)c(-c4ccc(F)c5sc(N)c(C#N)c45)c(C(F)(F)F)cc23)C1` (atropisomer, axis not shown) [Compound 582], the pIC50 (in test [1]; in test [2]; in test [3]; in test [4]; in the test with GP2d cells (KRAS G12D); with SW620 cells (KRAS G12V)) was over 7.00 in each case.

In the case of `CCN(c1nc(OC[C@@]23CCCN2C[C@H](F)C3)nc2c(F)c(-c3ccc(F)c4sc(N)c(C#N)c34)c(C(F)(F)F)cc12)[C@H]1CCN(C(=O)N(C)C2CC2)C1` (atropisomer, axis not shown) [Compound 583], the pIC50 (in test [1]; in test [2]; in test [3]; in test [4]; in the test with GP2d cells (KRAS G12D); in the test on SW620 cells (KRAS G12V)) was over 7.00 throughout.

Regarding `CCN(c1nc(OC[C@@]23CCCN2C[C@H](F)C3)nc2c(F)c(-c3ccc(F)c4sc(N)c(C#N)c34)c(C(F)(F)F)cc12)[C@H]1CCN(C(=O)N(C)C(C)C)C1` (atropisomer, axis not shown) [Compound 585], the pIC50 (in test [1]; in test [2]; in test [3]; in test [4]; in the test with GP2d cells (KRAS G12D); in the test with SW620 cells (KRAS G12V)) was over 7.00 in each case.

For `CCN(c1nc(OC[C@@]23CCCN2C[C@H](F)C3)nc2c(F)c(-c3ccc(F)c4sc(N)c(C#N)c34)c(C(F)(F)F)cc12)[C@H]1CCN(C(=O)C(C)(F)F)C1` (atropisomer, axis not shown) [Compound 587], the negative-log IC50 (pIC50) (in test [1]; in test [2]; in test [3]; in test [4]; in the test on GP2d cells (KRAS G12D); in the test with SW620 cells (KRAS G12V)) was over 7.00 each time.

With `CCN(c1nc(OC[C@@]23CCCN2C[C@H](F)C3)nc2c(F)c(-c3ccc(F)c4sc(N)c(C#N)c34)c(C(F)(F)F)cc12)[C@@H]1C[C@H](C)N(C(=O)C2CC2)C1` (atropisomer, axis not shown) [Compound 588], the pIC50 is 6.00 to 7.00 in test [1]; 6.00 to 7.00 in test [2]; 6.00 to 7.00 in test [3]; 6.00 to 7.00 in test [4]; over 7.00 in the test on GP2d cells (KRAS G12D); over 7.00 in the test on SW620 cells (KRAS G12V).

Take `CCN(c1nc(OC[C@@]23CCCN2C[C@H](F)C3)nc2c(F)c(-c3ccc(F)c4sc(N)c(C#N)c34)c(C(F)(F)F)cc12)[C@@H]1C[C@H](C)N(C(=O)COC)C1` (atropisomer, axis not shown) [Compound 589]: the pIC50 is 6.00 to 7.00 in test [1]; 6.00 to 7.00 in test [2]; 6.00 to 7.00 in test [3]; 6.00 to 7.00 in test [4]; over 7.00 with GP2d cells (KRAS G12D); over 7.00 in the test with SW620 cells (KRAS G12V).

As to `CCN(c1nc(OC[C@@]23CCCN2C[C@H](F)C3)nc2c(F)c(-c3ccc(F)c4sc(N)c(C#N)c34)c(C(F)(F)F)cc12)[C@H]1CCN(C(C)=O)[C@@H]1C` (atropisomer, axis not shown) [Compound 591], the pIC50 (in test [1]; in test [2]; in test [3]; in test [4]; in the test with GP2d cells (KRAS G12D); with SW620 cells (KRAS G12V)) was over 7.00 each time.

On to `CN(C)C(=O)c1nn2c(c1C(F)(F)F)CN(c1nc(OC[C@@]34CCCN3C[C@H](F)C4)nc3c(F)c(-c4ccc(F)c5sc(N)c(C#N)c45)c(C(F)(F)F)cc13)CC2` (atropisomer, axis not shown) [Compound 596], for which the pIC50 is over 7.00 in test [1]; 6.00 to 7.00 in test [2]; 6.00 to 7.00 in test [3]; 6.00 to 7.00 in test [4]; over 7.00 with GP2d cells (KRAS G12D); over 7.00 in the test on SW620 cells (KRAS G12V).

Take `CCN(c1nc(OC[C@@]23CCCN2C[C@H](F)C3)nc2c(F)c(-c3ccc(F)c4sc(N)c(C#N)c34)c(C(F)(F)F)cc12)[C@@H]1C[C@@H](C)N(C(=O)COC)C1` (atropisomer, axis not shown) [Compound 597]: the pIC50 in test [1] was 6.00 to 7.00; in test [2], 6.00 to 7.00; in test [3] it was 6.00 to 7.00; in test [4], over 7.00; with GP2d cells (KRAS G12D) it was over 7.00; in the test with SW620 cells (KRAS G12V), over 7.00.

With `CCN(c1nc(OC[C@@]23CCCN2C[C@H](F)C3)nc2c(F)c(-c3ccc(F)c4sc(N)c(C#N)c34)c(C(F)(F)F)cc12)[C@H]1CCN(C(=O)N(C)C2COC2)C1` (atropisomer, axis not shown) [Compound 598], the pIC50 (in test [1]; in test [2]; in test [3]; in test [4]; in the test with GP2d cells (KRAS G12D); in the test on SW620 cells (KRAS G12V)) was over 7.00 in each case.

With `CCN(c1nc(OC[C@@]23CCCN2C[C@H](F)C3)nc2c(F)c(-c3ccc(F)c4sc(N)c(C#N)c34)c(C(F)(F)F)cc12)[C@H]1CCN(C(=O)OC2CC2)C1` (atropisomer, axis not shown) [Compound 599], the pIC50 (in test [1]; in test [2]; in test [3]; in test [4]; in the test on GP2d cells (KRAS G12D); in the test on SW620 cells (KRAS G12V)) was over 7.00 in each case.

Regarding `C[C@@H](c1cccnc1N)N(C)c1nc(OC[C@@]23CCCN2C[C@H](F)C3)nc2c(F)c(-c3ccc(F)c4sc(N)c(C#N)c34)c(C(F)(F)F)cc12` (atropisomer, axis not shown) [Compound 601], the pIC50 in test [1] was 6.00 to 7.00; in test [2], 6.00 to 7.00; in test [3] it was 6.00 to 7.00; in test [4], 6.00 to 7.00; in the test on GP2d cells (KRAS G12D), over 7.00; with SW620 cells (KRAS G12V), over 7.00.

As to `N#Cc1c(N)sc2c(F)ccc(-c3c(C(F)(F)F)cc4c(N(Cc5cccnc5N)C5CC5)nc(OC[C@@]56CCCN5C[C@H](F)C6)nc4c3F)c12` (atropisomer, axis not shown) [Compound 602], the pIC50 was 5.00 to 6.00 in test [1]; 5.00 to 6.00 in test [2]; 5.00 to 6.00 in test [3]; 5.00 to 6.00 in test [4]; over 7.00 in the test with GP2d cells (KRAS G12D); over 7.00 with SW620 cells (KRAS G12V).

As to `CCN(c1nc(OC[C@@]23CCCN2C[C@H](F)C3)nc2c(F)c(-c3ccc(F)c4sc(N)c(C#N)c34)c(C(F)(F)F)cc12)[C@H]1CCN(C(=O)N2C[C@@H](F)[C@@H](F)C2)C1` (atropisomer, axis not shown) [Compound 609], the pIC50 (in test [1]; in test [2]; in test [3]; in test [4]; in the test with GP2d cells (KRAS G12D); with SW620 cells (KRAS G12V)) was over 7.00 in each case.

With `CCN(c1nc(OC[C@@]23CCCN2C[C@H](F)C3)nc2c(F)c(-c3ccc(F)c4sc(N)c(C#N)c34)c(C(F)(F)F)cc12)[C@@H]1CC(=O)N(CC(F)F)C1` (atropisomer, axis not shown) [Compound 612], the pIC50 (in test [1]; in test [2]; in test [3]; in test [4]; in the test with GP2d cells (KRAS G12D); in the test on SW620 cells (KRAS G12V)) was over 7.00 each time.

Consider `CN(c1nc(OC[C@@]23CCCN2C[C@H](F)C3)nc2c(F)c(-c3ccc(F)c4sc(N)c(C#N)c34)c(C(F)(F)F)cc12)[C@H]1CC(=O)N(C2CC2)C1` (atropisomer, axis not shown) [Compound 616], for which the pIC50 (in test [1]; in test [2]; in test [3]; in test [4]; in the test with GP2d cells (KRAS G12D); in the test with SW620 cells (KRAS G12V)) was over 7.00 throughout.
